Measurements reported in PMC7848139, “Novel Hybrid CHC from β-carboline and N-Hydroxyacrylamide Overcomes Drug-Resistant Hepatocellular Carcinoma by Promoting Apoptosis, DNA Damage, and Cell Cycle Arrest” (Frontiers in Pharmacology, 2021).

Assays:
HCT116 = experiment: MTT antiproliferative assay, HCT116; format: cell-based; details: Homo sapiens, HCT-116, 72 h, mean ± SD of three experiments, read-out: In vitro antiproliferative activity (IC50) HCT116
Procedure: (§1) Briefly, appropriate cells (1 × 10^4 cells/mL) were placed into 96-well plates in 100 μL of DMEM medium overnight. Then adding 100 μL of evaluated compounds into individual well for 72 h while 0.1% DMSO aqueous solution was treated as the negative control. After incubation with 30 μl MTT (5 mg/mL) for 4 h in all well, and ELISA plate reader measured absorbance of each well at 570 nm. Then calculating cytotoxicity effect of evaluated compounds through the formula: Cell inhibitory percentage (%) = (1−OD of treatment group/OD of control) × 100%.

Huh7 = experiment: MTT antiproliferative assay, Huh7; format: cell-based; details: Homo sapiens, Huh-7, 72 h, mean ± SD of three experiments, read-out: In vitro antiproliferative activity (IC50) Huh7
Procedure: as §1

SMMC-7721 = experiment: MTT antiproliferative assay, SMMC-7721; format: cell-based; details: Homo sapiens, 72 h, mean ± SD of three experiments, read-out: In vitro antiproliferative activity (IC50) SMMC-7721
Procedure: as §1

CT-DNA = experiment: UV-visible spectroscopy titrations with CT DNA; format: binding, calf; details: 20 μM compound, equal increments of CT-DNA, 25°C
Procedure: The ultraviolet spectrophotometer (UV2500, Shimadzu, Tokyo, Japan) recorded UV–visible spectroscopy under titrations at 25°C. Tris buffer (5 mM) was used to prepare Stock solutions of CT DNA (20 μM, calf thymus DNA) comprising ideal structure of double stranded DNA. Dissolving synthesized derivative in 1:1000 DMSO/Milli Q water to prepare stock solutions of them (20 μM). UV–visible absorption titrations were carried out with addition of 100 μl CT DNA solution to 4 ml solution of tested compound in quartz cuvette each time interval. Until the absorption band of complex containing synthesized derivative and CT DNA kept at a stable wavelength after adding CT DNA successfully for five times, titrations were finished. Finally, spectrophotometer noted the absorption spectra (250–500 nm).
FIGURE 7 UV-visible absorption spectra of CHC after adding equal amounts of CT DNA. Arrows indicate changes in absorbance with increasing concentrations of DNA [CHC] = 20 μM.

Bel7402/5-FU xenografts = experiment: In vivo tumor growth inhibition, Bel7402/5-FU xenograft; design: species or system BALB/c nude mice; details: 70 μmol/kg, intraperitoneal daily, 21 days, n = 6; saline group 1.47 ± 0.21 g
Procedure: All animal experimental protocols were approved by the Animal Research and Care Committee of Nantong University. Female BALB/c nude mice at 5∼6 week-old were subcutaneously implanted with 1×10^6 Bel7402/5-FU cells. […] The body mass and tumor size of nude mice were surveyed every three days during the 21 days study. Tumor size (mm^3) of nude mice was determined using the formula: tumor size = ½ (Length×Width^2). Finally, these tumor-bearing mice were sacrificed, and their tumors were removed and weighed at the end of the 21 days.
Data (means ± SD) were from tumor volumes or weight of each group of mice (n = 6 per group). *p < 0.01 vs. control group.

Bel7402/5-FU cells = experiment: Cell apoptosis analysis by flow cytometry; format: cell-based, human; details: 5.0 μM, 72 h
Procedure: Briefly, Bel7402/5-FU cells were cultured in DMEM at 37°C with 5% CO2 for 12 h. […] Then Bel7402/5-FU cells were collected and using APC-Annexin V and 7-AAD to stain these cells under the condition of 37°C for 15 min. Flow cytometry analysis (Calibur, BD, United States) decide the percentage of apoptotic cells according to APC signal (FL4) (excitation wavelength at 633 nm; emission wavelength at 660 nm) and 7-AAD staining signal (FL3) (excitation wavelength at 488 nm; emission wavelength at 647 nm). WinList 3D (7.1) analyzed the data and Excel 2016 plotted the histogram.
FIGURE 5 CHC causes apoptosis of Bel7402/5-FU cells. […] The data (mean ± SD, percentage of apoptotic cells) represent the average of three separate experiments. *p < 0.01 vs. control.

Row | SMILES | IC50 (HCT116) [µM] | IC50 (Huh7) [µM] | IC50 (SMMC-7721) [µM] | change of UV-visible absorption upon adding CT-DNA (CT-DNA) | tumor mass at end of treatment (Bel7402/5-FU xenografts) [g] | rate of Annexin V+ Bel7402/5-FU cellular apoptosis (Bel7402/5-FU cells) [%]
1 | COc1ccc2c(c1)[nH]c1c(C)nccc12 [Harmine, harmine, reference compound] | 43.8 ± 3.85 | 41.9 ± 5.06 | 47.6 ± 5.12 | – | – | –
2 | O=C(CCCCCCC(=O)Nc1ccccc1)NO [SAHA, Vorinostat, reference compound] | – | – | – | slightly increased | 0.76 ± 0.11 | 30.8
